How the values were obtained:
MM1S cells = assay: Cell viability assay (MTS assay), MM1S cells; format: cell-based, human; conditions: Homo sapiens, MM1.S, single-agent bortezomib 0.5 nM, 48 hours, read-out: inhibition of cell viability
Method: In vitro synergy between COMPOUND 1 and bortezomib or melphalan was assessed using the median effect method of Chou and Talalay (30). Combination indices (CIs) were calculated separately for each combination. […] CIs between 0.9 and 1.1 were considered to indicate additive drug effects (31).

in vitro = conditions: human
From the text: The human myeloma cell line RPMI8226 was obtained from American Type Culture Collection (Rockville, Md.). The MM1S myeloma cell line was provided by Dr. Steven Rosen (Northwestern University, Chicago, Ill.). Normal peripheral blood mononuclear cells (PBMCs) were isolated by Histopaque® density gradient centrifugation, according to the manufacturer's protocol (Sigma-Aldrich, St. Louis, Mo.). Myeloma cell lines and PBMCs were maintained in RPMI 1640 (Omega Scientific, Tarzana, Calif.) supplemented with 10% fetal bovine serum, 2 mM L-glutamine, 100 IU/mL penicillin, 100 μg/mL streptomycin, and essential amino acids in an atmosphere of 5% carbon dioxide (CO2) at 37° C.
Cells were seeded at 10^5 cells/100 μL/well in 96-well plates and incubated for 24 hours. RPMI8226 and MM1S cells were cultured in the presence of vehicle, COMPOUND 1, bortezomib, melphalan, COMPOUND 1+bortezomib, or COMPOUND 1+melphalan for 48 hours. After the incubation period, cell viability was quantified using the CellTiter 96® AQueous Non-Radioactive Cell Proliferation Assay (Promega, Madison, Wis.). Each well was treated with MTS (3-(4,5-dimethylthiazol-2-yl)-5-(3-carboxymethoxyphenyl)-2-(4-sulfophenyl)-2H-tetrazolium, inner salt) for 1 to 4 hours, after which absorbance was recorded at 490 nm. The quantity of formazan product as measured by absorbance at 490 nm is directly proportional to the number of living cells in culture.
In order for therapy with two or more PIs to be feasible in vivo, the combination must spare non-neoplastic cells. […] A healthy donor's PBMCs were cultured for 48 hours in the presence of COMPOUND 1 alone, bortezomib alone, or both agents together, and cell viability was quantified by MTS assay.

RPMI8226 cells [1] = assay: Apoptotic assay by annexin V and propidium iodide staining; format: cell-based, human; conditions: 2.5 nM for each drug, 30 hours
Method: To quantify apoptosis in response to drug treatment, RPMI8226 cells (5×10^5 cells per well) were incubated with vehicle or PIs at 37° C. and 5% CO2 for 30 hours. As a positive control, cells were incubated with 250 ng/mL of actinomycin D for 24 or 48 hours. Cells were then washed twice with phosphate-buffered saline, resuspended in binding buffer (100 mM HEPES/NaOH, pH 7.5 containing 1.4 M NaCl and 25 mM CaCl2), and stained with fluorescein isothiocyanate (FITC)-conjugated annexin V and with the fluorescent dye propidium iodide (PrI), according to the manufacturer's protocol (BioVision, Mountain View, Calif.). For each drug treatment, 1×10^5 gated events were recorded. Cells negative for both PI and annexin V staining were considered live; annexin V-positive, PrI-negative cells were considered early apoptotic; annexin V-positive, PrI-positive cells were considered late apoptotic. Flow cytometric analyses were performed using a Beckman Coulter FC500 cytometer with Cytomics CXP software (Beckman Coulter, Fullerton, Calif.).

LAGκ-1A tumor = assay: Intramuscular LAGκ-1A tumor xenograft model (serum hIgG, tumor volume); conditions: alone or together
Method: (§1) Six- to 8-week-old male severe combined immunodeficient (SCID) mice were obtained from the Jackson Laboratory (Bar Harbor, Me.) and maintained in a specific pathogen-free area in our animal resources facility. All animal studies were conducted according to protocols approved by the Institutional Animal Care and Use Committee. Animals were anesthetized with ketamine, xylazine, and isoflurane prior to surgery and were euthanized when tumors reached 2 cm in diameter.
(§2) Biopsy tissue was surgically implanted in the hind limbs of anesthetized SCID mice and passaged through succeeding generations (32).
(§3) Myeloma tumors (LAGκ-1A or LAGκ-1B) were excised from an anesthetized donor mouse, sectioned into 20 to 40 mm^3 pieces, and surgically implanted into the left superficial gluteal muscle of anesthetized naive SCID mice. Recipient mice received weekly injections of anti-asialo GM1 rabbit serum (Wako Bioproducts, Richmond, Va.) to further suppress immune activity. Mice were blindly assigned to one of the experimental groups, and treatment was initiated 7 to 21 days after tumor implantation. COMPOUND 1 was administered via oral gavage daily (0.5-5.0 mg/kg) or twice weekly (5-10 mg/kg). COMPOUND 1 was also administered twice weekly (W, F) via either IV injection (0.5-3.0 mg/kg) or oral gavage (10 mg/kg), as specified. Melphalan (1 mg/kg) was provided via weekly intraperitoneal (IP) injections (W). Bortezomib (0.5 mg/kg) was dispensed twice weekly (T, Th) via IV injection. Control treatment consisted of COMPOUND 1 diluent (3.2 mL 5% mannitol and 800 μL propylene glycol) alone.
Mice bearing MM tumors underwent weekly retro-orbital bleeds. Resulting samples were spun at 13,000 rpm for 30 minutes to isolate serum. The hIgG ELISA kit (Bethyl Laboratories, Montgomery, Tex.) was used according to the manufacturer's specifications. Absorbance at 450 nm with a reference wavelength of 550 nm was determined on a μQuant microplate spectrophotometer with KC Junior software (Bio-Tek Instruments, Winooski, Vt.). Data graphed are the mean±SEM with n=7-8 mice/group.
(§4) As a direct measurement of tumor growth, calipers were used to assess tumor volume weekly, and the formula for an ellipsoid volume was applied ( 4/3π×[width/2]^2×[length/2]).
(§5) Percent inhibition of tumor growth is represented as the tumor volume of the test drug group over the tumor volume of the untreated group (T/C). The optimal value is the minimal T/C ratio that reflects the maximal tumor growth inhibition achieved. The criterion for efficacy for the T/C ratio is ≦42%, according to National Cancer Institute (NCI) standard criteria (44).
(§6) Efficacy of drug therapy against tumors was standardized to the time (t) required for the untreated tumor to grow to a determined size based on the greatest difference in time to reach a tumor volume between the control and treatment group. This value can be represented as the growth delay (in days) between treated and control (tt−tc) (44).
(§7) Tumor growth and hIgG levels were analyzed in terms of treatment group means and standard error. Student's t-test was applied to determine the statistical significance of differences between treatment groups. Minimal significance level was P<0.05.

LAGκ-1B tumor = assay: Intramuscular LAGκ-1B tumor xenograft model (tumor volume)
Method: as §1, §2
as §3, with “Melphalan (1 mg/kg) was provided via weekly intraperitoneal (IP) injections (W).” left out
as §4, §5, §6, §7

[2] = test system: apoptosis-inducing factor (AIF); assay: Immunohistochemical analysis of AIF expression in LAGκ-1B tumors; format: in vivo, SCID mice; conditions: COMPOUND 1 1 mg/kg, bortezomib 0.5 mg/kg, alone or both; tumors excised post-treatment
Method: LAGκ-1B tumors were fixed in 4% paraformaldehyde and cut into 5 μm sections. Briefly, sections were blocked with Tris-buffered saline with 0.05% Tween-20 (TBST) and 3% BSA for 1 hour at room temperature and then incubated overnight with a rabbit antibody against AIF (Sigma, St. Louis, Mo.). The sections were washed three times with TBST and treated with horse radish […] anti-rabbit antibody (KPL, Gaithersburg, Md.) diluted 1:500 in TBST at room temperature for 2 hours. The slides were washed three times in TBST and placed in 3-amino-9-ethylcarbazole (AEC) buffer for 5 minutes, and color was detected using an AEC kit (Dako, Glostrup, Denmark). Staining was documented using an Olympus BX51 microscope (Olympus Imaging America Inc., Center Valley, Pa.) and analyzed by Microsuite Biological Suite program (Olympus BX51).

CD138-negative MM cells = conditions: single agent; cited from earlier work
RPMI8226 cells [3] = assay: Cell viability assay (MTS assay), RPMI8226 cells; format: cell-based, human; conditions: Homo sapiens, RPMI-8226, 48 h, read-out: decrease in cell viability
Method: Combination indices (CIs) were calculated separately for each combination. […] CIs between 0.9 and 1.1 were considered to indicate additive drug effects (31).

[4] = bortezomib 0.5 mg/kg IV, COMPOUND 1 1 mg/kg IV, alone or together

| SMILES | cytotoxicity at 0.0005 µM (MM1S cells) [%] | viability at 48 h, 9 nM (in vitro) [%] | proportion of cells in early apoptosis (PrI−/Annexin V+) (RPMI8226 cells [1]) | serum hIgG levels and tumor volume vs vehicle (LAGκ-1A tumor; COMPOUND 1 1 mg/kg IV, bortezomib 0.5 mg/kg IV, twice weekly) | days to tumor progression (LAGκ-1B tumor; [4]) [days] | survival longer than vehicle-treated mice (LAGκ-1B tumor; [4]) [%] | tumor growth vs vehicle (LAGκ-1B tumor; bortezomib 0.5 mg/kg IV, COMPOUND 1 1 mg/kg IV, alone or together, combination after 21 days P=0.0014) | drug-related / toxicity-related deaths (LAGκ-1B tumor; mouse, in vivo) | AIF expression vs vehicle-treated tumors [2] | effect on growth of CD138-negative MM cells (CD138-negative MM cells) | cytotoxicity at 40 µM (RPMI8226 cells [3]) [%] | serum hIgG levels and tumor volume vs vehicle (LAGκ-1A tumor; melphalan 1 mg/kg IP weekly, COMPOUND 1 1 mg/kg IV twice weekly, 3 weeks) | tumor volume (LAGκ-1B tumor; melphalan 3 mg/kg IP weekly, COMPOUND 1 1 mg/kg IV twice weekly, alone or together, three weeks) |
| --- | --- | --- | --- | --- | --- | --- | --- | --- | --- | --- | --- | --- | --- |
| CC(C)C[C@H](NC(=O)[C@H](Cc1ccccc1)NC(=O)c1cnccn1)B(O)O [bortezomib, [(1R)-3-methyl-1-({(2S)-3-phenyl-2-[(pyrazin-2-ylcarbonyl)amino]propanoyl}amino)butyl]boronic acid, reference compound] | ~16 | ~85 | 17.5 % of cells | only partially inhibited | 35 | 20 | only modestly suppresses | one death each | elevated AIF expression | little effect |  |  |  |
| N[C@@H](Cc1ccc(N(CCCl)CCCl)cc1)C(=O)O [melphalan, 4-[bis(2-chloroethyl)amino]-L-phenylalanine, reference compound] |  |  |  |  |  |  |  |  |  |  | ~30 | no effect | partially inhibited |
